Patent publication US20240316164A1, “ENHANCED EXPRESSION OF AN AROMATIC AMINO ACID DECARBOXYLASE (AADC) IN THE SUBSTANTIA NIGRA FOR THE TREATMENT OF PARKINSON'S DISEASE” (Northwestern University, priority 2021, published 2024)
Entries after “also recorded” stand apart in the source; their conditions may differ.

Key:
[1] = tested on: cNdufs2−/− mice; experiment: Y maze associative learning test; format: in vivo, mouse; conditions: systemic levodopa 6 mg/kg, P30
Text: (§1) FIG. 4. cNdufs2^−/− mice manifest a progressive, levodopa-responsive Parkinsonism. a, Schematic diagram of the experimental protocol for Y maze test. […] Local electrical stimulation (350 μA, 2 ms) was used to evoke release. […] By P30, cNdufs2^−/− mice took longer (N=10-13 per group). e, Open-field traces in wildtype and cNdufs2^−/− mice at P30 and P100. f, Number of pauses during open field test in wildtype and cNdufs2^−/− mice. […] N=12-27per group. h-m, Gait analysis procedure and measurement schematics. h, Pictures of wildtype and cNdufs2^−/− mice footprints with representations of measurements of RF (Right Fore). RH (Right Hind). […] Box plots represent stride length in right hind paw at P100 (N=7 per group). m, Boxplots indicate swing duration in right hind paw. […] Kruskal-Wallis test: (b), (d), (f) and (g). ***P<0.001. 2-way ANOVA followed by Tukey's post hoc test (c). *P<0.05; **P<0.01; 1-way ANOVA followed by Tukey's post hoc test (i), (j), (l) and (m). Data are presented as box-and-whisker plots depicting median, quartiles, and range (b), (c), (i), (j), (l) and (m) or median and range (shaded area); (d), (f) and (g).
Unlike conventional PD models in which DA is depleted rapidly throughout the basal ganglia, the staging of pathology in cNdufs2^−/− mice allowed an assessment of how regional deficits in DA release are coupled to behavior. […]

[2] = tested on: cNdufs2−/− mice; experiment: Adhesive removal test; format: in vivo, mouse; conditions: regardless of age
Text: as §1
By P40, open-field, exploratory behavior of cNdufs2″ mice began to be interrupted by brief pauses, although the total distance traveled in the testing period was normal (FIGS. 4e-g). […]

[3] = tested on: cNdufs2−/− mice; experiment: Open field test; format: in vivo, mouse
[4] = tested on: cNdufs2−/− mice; experiment: Rearing test; format: in vivo, mouse; conditions: levodopa 3 mg/kg, P20-P120
Text: (§2) FIG. 21. Behavioral phenotypes in cNdufs2^−/− mice. (a) Rearing test performance. b. […] Number of rearings begin to be impaired at P40. […] At P60, cNdufs2^−/− mice show difficulty transitioning between rearing and landing, spending much more time ‘stuck’ in an elevated posture. […] P60 and P100. […] P60 and P100. […] P60 and P100. […] P60 and P100. […] 1. […] P60 and P100. […] P60 and P100. […] P60 and P100. […] Kruskal-Wallis test: (b), and (c). *P<0.05; **P<0.01; 1-way ANOVA followed by Tukey's post hoc test: (h-o). Data are presented as median and range (shaded area).
By P40, open-field, exploratory behavior of cNdufs2″ mice began to be interrupted by brief pauses, although the total distance traveled in the testing period was normal (FIGS. 4e-g). Later, open-field behavior of cNdufs2^−/− mice became progressively more impaired and total distance traveled began to fall (FIG. 4g). […] Another common exploratory behavior of mice involves rearing. When placed in a tall glass cylinder, mice rear, land and rear again in a different part of the cylinder; in a 3-minute period, mice typically rear and land 15-20 times. At P30, rearing behavior of cNdufs2^−/− mice was normal, but by P60 cNdufs2^−/− mice appeared to have difficulty transitioning between rearing and landing, spending much more time ‘stuck’ in an elevated posture. […]

[5] = tested on: cNdufs2−/− mice; experiment: Gait analysis on treadmill; format: in vivo, mouse
Text: as §1, §2
However, by P100, cNdufs2^−/− mice had splayed hindlimbs, abnormal paw placement and alterations in stride when forced to ambulate on the treadmill (FIG. 4h-m, FIG. 21h-o). […] Because cNdufs2^−/− mice manifest a clear, levodopa-responsive Parkinsonism that is attributable to MCI dysfunction, they are referred to as MCI-Park mice.

[6] = tested on: SN dopaminergic neurons; experiment: Cytosolic ATP/ADP ratio with PercevalHR in ex vivo brain slice; format: cell-based, mouse; conditions: wildtype dopaminergic neurons, inhibition of mitochondrial complex V
Text: FIG. 1. Loss of Ndufs2 function triggers mitochondrial and genomic adaptations in SN DA Neurons. a, Schematic of a coronal section of the midbrain highlighting the sampled region of SNc (orange). b, Meta-analysis of RNAseq data obtained by Cre-dependent RiboTag mRNA precipitation from P40 wildtype mice. […] Scale bar: 10 μm. e, Representative TMRM fluorescence time series after the application of carboxyatractyloside, the adenine nucleotide transporter inhibitor (iANT). f, Box plots of TMRM after blocking ANT with carboxyatractyloside and depolarizing mitochondria with FCCP (wildtype, P40 n=8 (1 per section), 6 mice; cNdufs2^−/−, P20 n=4 (1 per section), 3 mice; P40 n=5 (1 per section), 4 mice)). g, Cartoon representing the activity of the ETC and ANT following Ndufs2 deletion. h, Electron micrographs of SN DA neurons. The nucleus and the mitochondria are highlighted in green and red, respectively. […] The percentage of abnormal mitochondria was calculated as the ration between the area occupied by abnormal mitochondria over the total area occupied by mitochondria for each cell. […] Scale bar: 15 μm. p, Representative time-lapse measurements of Perceval-HR fluorescence ratio. […]

[7] = levodopa 6 mg/kg, P30, P60 and P100

SMILES: N[C@@H](Cc1ccc(O)c(O)c1)C(=O)O [levodopa]
- associative learning (memory) task, percentage of correct choices [1]: restored
- adhesive removal speed [2]: improved adhesive removal speed regardless of age
- number of pauses during open field test ([3]; cNdufs2−/− mice, levodopa 3 mg/kg): rescued this deficit
- open-field performance (pauses, total distance traveled) ([3]; cNdufs2−/− mice, levodopa treatment): improved performance in this task
- open-field ambulation ([3]; control MCI-Park mice without AADC, low systemic levodopa dose 1.5 mg/kg, ~P100, 1.5 mg/kg): had no discernible effect
- number of rearings in a 3-minute period [4]: did not rescue this deficit
- rearing time [4]: did not lessen this deficit; also recorded: did not rescue this deficit
- gait deficits (splayed hindlimbs, abnormal paw placement, alterations in stride) ([5]; P100): ameliorated some, but not all of these deficits
- swing duration in right hind paw ([5]; levodopa 6 mg/kg): not rescued
- brake duration in right hind paw [5, 7]: did not rescue this phenotype
- propulsion time in right hind paw [5, 7]: did not rescue this phenotype
- step sequence in right hind paw [5, 7]: did not rescue this phenotype
- stride frequency in right hind paw [5, 7]: did not rescue this phenotype
- hind limb stance width ([5]; levodopa 6 mg/kg, P100): rescued this phenotype
- paw area in right hind paw ([5]; levodopa 6 mg/kg, P100): rescued this phenotype at P100
- stance duration in right hind paw ([5]; levodopa 6 mg/kg, P100): rescued this phenotype at P100

SMILES: CC[C@H]1/C=C/C=C/C[C@@H](C)[C@H](O)[C@@](C)(O)C(=O)[C@@H](C)[C@H](O)[C@@H](C)C(=O)[C@@H](C)[C@H](O)[C@@H](C)/C=C/C(=O)O[C@@H]2[C@H](C)[C@H](CC1)O[C@]1(CC[C@H](C)[C@H](C[C@@H](C)O)O1)[C@H]2C [oligomycin]
- cytosolic ATP/ADP ratio (ATP levels) [6]: caused a precipitous drop in ATP levels
